Experimental data as given in patent US10407404B2, “Physical form of a SGR modulator” (ASTRAZENECA AB, priority 2016, dated 2019).

Assays:
Assay type in all cases: cell-based
[1] = molecular target: T1, human glucocorticoid receptor (GR) (Homo sapiens, UniProt P04150); experiment: GRE Antagonist Assay (ChagoK1 18:7:2 s4/GRE reporter cell line, dexamethasone pre-stimulated); details: ChaGo-K-1, relative to full antagonist effect of Mifepristone (RU486), read-out: TA antagonist Observed max Effect at 1 μM (%)
T1 construct: endogenous in cells; host or cells: ChagoK1 18:7:2 s4/GRE (human bronchogenic carcinoma ChaGo K1, ATCC HTB 168, stably carrying MMTV-GRE-LacZ reporter)
T1 sequence (P04150 1-777): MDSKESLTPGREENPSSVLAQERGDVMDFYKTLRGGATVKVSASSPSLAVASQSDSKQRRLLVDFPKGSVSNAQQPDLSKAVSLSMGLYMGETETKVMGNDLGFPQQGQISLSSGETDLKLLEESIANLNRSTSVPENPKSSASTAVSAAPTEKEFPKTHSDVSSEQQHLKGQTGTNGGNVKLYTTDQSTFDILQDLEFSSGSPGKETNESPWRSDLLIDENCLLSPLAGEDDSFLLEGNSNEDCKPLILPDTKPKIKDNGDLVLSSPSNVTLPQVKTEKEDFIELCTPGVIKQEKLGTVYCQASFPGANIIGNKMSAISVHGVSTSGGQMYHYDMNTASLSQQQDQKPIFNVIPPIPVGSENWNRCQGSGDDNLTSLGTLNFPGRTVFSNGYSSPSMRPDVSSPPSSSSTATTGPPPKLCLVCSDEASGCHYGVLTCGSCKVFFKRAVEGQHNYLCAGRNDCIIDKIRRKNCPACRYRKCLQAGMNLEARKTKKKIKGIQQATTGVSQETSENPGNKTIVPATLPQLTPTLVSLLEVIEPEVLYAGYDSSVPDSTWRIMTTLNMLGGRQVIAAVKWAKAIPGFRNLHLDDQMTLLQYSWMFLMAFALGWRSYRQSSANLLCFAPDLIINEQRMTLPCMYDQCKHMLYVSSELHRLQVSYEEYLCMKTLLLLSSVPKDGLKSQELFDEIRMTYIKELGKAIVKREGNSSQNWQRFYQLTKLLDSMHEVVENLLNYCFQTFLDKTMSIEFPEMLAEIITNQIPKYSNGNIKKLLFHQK
Text: (§1) A reporter cell line (ChagoK1 18:7:2 s4/GRE) was established by stable transfection of the human bronchogenic carcinoma celline, ChaGo K1 (ATCC: HTB 168) with a MMTV-GRE-LacZ reporter construct. The generated cell line allows for identification of compounds showing antagonist activity at the human glucocorticoid receptor (GR) via reduction of LacZ gene expression. Dexamethasone-activated GR binds to the Glucocorticoid Response Element (GRE) in the promoter of the LacZ gene and transcription is initiated. Antagonistic properties of compounds are assessed as beta-galactosidase intensity reduction from pre-stimulation with dexamethasone through a colour reaction (change in absorbance).
Cryo-preserved ChagoK1 18:7:2 s4/GRE cells were suspended in RPMI medium with 10% FBS, 1% NEAA and 1% sodium pyruvate, and seeded as 50000 cells/200 ul/well in 96-well plates and cultured at 37° C. with 5% CO2 and 95% humidity for 24 hr. Cells were pre-stimulated with 2 μl dexamethasone (70 nM final conc) for 4-5 hr, before addition of 1 μl compound at different concentrations and incubation for an additional 24 hr. […] The plates were measured at 420 nm for absorbance in a SpectraMax reader (Molecular Device).
The relative efficacy (% effect) of a compound is calculated based on the full antagonist effect of the reference compound Mifepristone (RU486): % Effect=((Sample abs−min abs)/(max abs−min abs))×100 […]

[2] = molecular target: T1, human glucocorticoid receptor (GR); experiment: GRE Agonist Assay (ChagoK1 18:7:2 s4/GRE MMTV-GRE-LacZ reporter cell line)
Text: as §1, with “cell line,” for “celline,”, “agonist” for “antagonist”, “induction” for “reduction”, “Ligand-activated” for “Dexamethasone-activated”, “The resulting” for “Antagonistic properties of compounds are assessed as”, “activity is measured” for “intensity reduction from pre-stimulation with dexamethasone”
Cryo-preserved ChagoK1 18:7:2 s4/GRE cells were suspended in RPMI medium with 10% FBS, 1% NEAA and 1% sodium pyruvate, and seeded as 50000 cells/200 ul/well in 96-well plates and cultured at 37° C. with 5% CO2 and 95% humidity for 24 hours. 1 μl compound was added at different concentrations to the cells and incubated for another 24 hours. Cells were washed once in PBS and lysed with 50 al of 0.1% Triton-X for 10 min at room temperature. […] The plates were measured at 420 nm for absorbance in a SpectraMax reader (Molecular Device).
The relative efficacy (% effect) of a compound is calculated based on the full agonist effect of dexamethasone: % Effect=((Sample abs−min abs)/(max abs−min abs))×100 […]

[3] = system: release of TNFα from whole blood stimulated with LPS; experiment: In vitro human whole blood: inhibition of TNFα release after LPS stimulation; details: LPS 30 μg/mL, 18 hr, read-out: TNFα pIC50 (converted)
Protocol: The anti-inflammatory activity of compounds and prednisolone was determined in vitro by their ability to inhibit the release of TNFα from whole blood stimulated with LPS. Venous blood from human donors was collected and anti-coagulated with sodium heparin and transferred to a sterile polystyrene round bottomed plate (Corning) at 190 μL per well.
Compounds were prepared from 10 mM stock solutions in dimethylsulfoxide (DMSO, Sigma) by serially diluting 1/3 in DMSO to produce a master plate with the top concentration at 3.33 mM and the lowest concentration at 0.1 μM. Compounds from the master plate were added to the blood at 1 μL/well (1/200) dilution to give final concentrations ranging between […] and 0.5 nM. Control wells received 1 μL DMSO only and the final DMSO concentration in all wells was 0.5%. […]
TNFα protein levels were determined using an AlphaLISA hTNFα kit (Perkin Elmer) according to the manufacturer's instructions. […] The samples were read at 615 nm with excitation at 680 nm using an Envision plate reader. TNFα in the samples was determined by extrapolation from the standard curve and expressed as pg/mL.
The % inhibition of TNFα was determined by the equation: % inhibition=(1−(A−B)/(C−B))×100 Here, A=TNFα in LPS stimulated samples containing compound, B=TNFα in unstimulated samples. and C=TNFα in LPS stimulated samples without compound. […]

[4] = system: tyrosine aminotransferase (TAT) mRNA expression; experiment: Tyrosine aminotransferase (TAT) mRNA expression in vitro assay in human primary hepatocytes; details: 18 hr, human cryopreserved primary hepatocytes, versus DMSO control, 2^-ΔΔCt, range and n in brackets
Protocol: The impact of test compounds on hyperglycemic events were assessed by looking at changes in mRNA expression of the gene encoding tyrosine aminotransferase (TAT), which is under direct regulation of the glucocorticoid receptor in human hepatocytes.
Human cryopreserved primary hepatocytes (BioreclamationIVT, M00995-P lot EPB) were plated to 24-well collagen I-coated plates (Becton Dickinson, 354408). Cells were allowed to attach for 4 hr before being challenged with test compounds overnight (18 hr). Cells were harvested and total RNA isolated using RNeasy Plus Mini Kit (Qiagen, 74136) followed by cDNA synthesis using High Capacity cDNA reverse transcription kit (Applied Biosystems, 4368813). Real-time RT PCR was performed on an Applied Biosystems 7500 PCR cycler, using Taqman primers for TAT (Life technologies, Hs00356930_ml) and the reference gene hypoxanthine phosphoribosyltransferase 1 (Life technologies, Hs99999909_ml).
Human cryopreserved primary hepatocytes were transferred in to pre-warmed (37° C.) plating medium (BioreclamationIVT, Z990003) and diluted to 0.7×10^6 viable cells/mL. […] Real-time RT PCR was carried out using TaqMan reagents (Life technologies) on the 7500 PCR cycler, and Ct-values for TAT gene expression was normalised to the control gene and expressed as fold change compared to DMSO control using the 2^−ΔΔCt method.

Row | Emax at 1 µM [1] | Emax at 1 µM ([2]; ChaGo-K-1, at 1 μM, relative to full agonist effect of dexamethasone, read-out: TA agonist Observed max Effect at 1 μM (%)) | EC50 ([2]; transactivation, agonist mode, 24 h incubation, read-out: TA agonist pEC50 (converted)) | IC50 [3] | Compound | Fold Change Tyrosine Aminotransferase Gene Expression Relative to Control (1 μM) [4]
1 | 70% | 39% | 12.6 nM | 631 nM | CC(C)[C@H](NC(=O)C(C)(F)F)[C@H](Oc1ccc2c(cnn2-c2ccc(=O)n(C)c2)c1)c1ccccc1 [Example 1, 2,2-difluoro-N-[(1R,2S)-3-methyl-1-{[1-(1-methyl-6-oxo-1,6-dihydropyridin-3-yl)-1H-indazol-5-yl]oxy}-1-phenylbutan-2-yl]propanamide] | 
2 |  |  |  | 316 nM | C[C@]12C=CC(=O)C=C1CC[C@@H]1[C@@H]2[C@@H](O)C[C@@]2(C)[C@H]1CC[C@]2(O)C(=O)CO [Prednisolone, reference compound] | 2.5 (1.4-4.2, n = 8)
